In patent US20230406812A1, “NOVEL AMINOAROMATIC COMPOUND OR PHARMACEUTICALLY ACCEPTABLE SALT THEREOF, AND PHARMACEUTICAL COMPOSITION FOR PREVENTING OR TREATING NEURODEGENERATIVE DISEASES COMPRISING SAME AS ACTIVE INGREDIENT” (INSTITUTE FOR BASIC SCIENCE, priority 2020, published 2023):

Tests used:
hemoglobin (Hb) = hemoglobin (Hb) (Homo sapiens, UniProt P68871+P69905); test: Hydrogen peroxide scavenging ability with hemoglobin (Amplex Red H2O2 assay); type: biochemical; settings: 10 μM H2O2, 80 μg/ml hemoglobin, 37° C. about 30 minutes
Procedure: Amplex Red is a means which turns into a fluorescent substance called resorufin when horse radish peroxidase (HRP) and H2O2 exist together and allows measurement of changes in H2O2, that is, H2O2 assay. […] The experiment was performed by adding hemoglobin instead of HRP to the H2O2 assay by Amplex Red (FIG. 1). The final concentration of each substance was 10 μM of H2O2 and 80 μg/ml of hemoglobin, and the aminoaromatic compound of the present invention was treated by concentration. After the reaction at 37° C. for about 30 minutes as such, fluorescence (excitation: 540 nm, emission: 580 nm) was measured by a microplate reader. At this time, it can be said that fluorescence is proportional to the amount of H2O2. Normalization was performed for each concentration based on a fluorescence value without a drug, and a value at which the fluorescence value was 50%, that is, a half maximal effective concentration (EC50) was determined by a program through statistical processing. The results are shown in the following Table 2, and AAD-2004 was used as a control group.

APP/PS1 mouse [1] = test: Passive avoidance test (PAT) I; type: in vivo; settings: 3 mg/kg/day IP for 16 days
Procedure: A passive avoidance test is an experiment to check the memory of animals, in which a weak electric stimulation was given in a dark room and it was assessed whether the animal remembered the electrical stimulation.
Since mice preferred a dark room, they have a tendency to move quickly to a dark room when they are in a bright room. […] A time to move from a bright room to a dark room (latency to dark room, sec) was measured, thereby measuring memory of a combination of the electrical stimulation and the dark room. An APP/PS1 mouse which is used as an Alzheimer's animal model was used to perform the passive avoidance test (FIG. 4). A wild type (WT) mouse was used as a control group.
(§1) On the first day of PAT, as an acquisition session, the mouse was allowed to stay in a bright room, and after a certain time, a dark room was opened and a time for the mouse to enter the dark room was measured. When the mouse entered the dark room, an electrical shock (0.5 mA, 2 sec) was given by a foothold. On the second day, as a retrieval session, the mouse was placed in a bright room, and a time for the mouse to enter a dark room was measured. At this time, the door of the dark room was opened first.
The APP/PS1 dementia mouse was intraperitoneally injected with the aminoaromatic compound of the present invention (KDS12008 (Example 1), KDS12017 (Example 16), or KDS12025 (Example 21)) (KDS12008 (Example 1) 30 mg/kg/day (30 mpk); KDS12017 (Example 16) 30 mg/kg/day (30 mpk); KDS12025 (Example 21) 3 mg/kg/day (3 mpk)) for 16 days (intraperitoneal injection, IP).

[2] = test system: APP/PS1 mouse hippocampus astrocytes (GFAP); test: Immunohistochemistry (IHC) I of brain tissue, GFAP; type: in vivo; settings: 3 mg/kg/day IP for 16 days
Procedure: (§2) The brain of the Alzheimer's animal model of Experimental Example 3 was fixed with formaldehyde, and sliced into a small thickness. The amount of cells or specific protein in the sliced brain was measured with an image by histochemical staining. In the present experimental example, an antibody labeling an astrocyte was used to measure a change in astrocytes related to dementia. The results are illustrated in FIG. 5. That is, in the present experimental example, the hippocampus of the brain was histologically stained and a change in astrocytes around dementia substance amyloid beta was observed. Glial fibrillary acidic protein (GFAP) refers to astrocytes staining, 4′,6-diamidino-2-phenylindole (DAPI) marked cell nuclei and amyloid beta substance.

APP/PS1 mouse [3] = test: Passive avoidance test (PAT) II; type: in vivo
Procedure: as §1
3 mg/kg/day (3 mpk) and 10 mg/kg/day (10 mpk) of the aminoaromatic compound of the present invention, KDS12025 (Example 21) was intraperitoneally injected into the APP/PS1 mouse which is used as an Alzheimer's animal model for one week, and the passive avoidance test was performed in the same manner as in Experimental Example 3. The results are illustrated in FIG. 6.

[4] = test system: APP/PS1 mouse hippocampus astrocytes (GFAP); test: Immunohistochemistry (IHC) II of brain tissue; type: in vivo
Procedure: as §2
The Alzheimer's animal model of Experimental Example 5 was used to perform histochemical staining of the brain tissue in the same manner as in Experimental Example 4, and the results are shown in FIG. 7.

[5] = test system: APP/PS1 mouse hippocampus cells; test: Electrophysiology experiment (tonic GABA); type: in vivo; settings: 3 mg/kg/day or 10 mg/kg/day
Procedure: The Alzheimer's animal model of Experimental Example 5 was used to confirm the influence of astrocytes and the mechanism causing memory impairment in dementia through an electrophysiology experiment.
Therefore, in the present experimental example, each of the APP/PS1 mouse as the Alzheimer's animal model, the APP/PS1 mouse treated with 3 mg/kg/day or 10 mg/kg/day, respectively, of the aminoaromatic compound of the present invention, KDS12025 (Example 21), and a healthy normal mouse (wild type, WT) was anesthetized, and brain tissues were obtained therefrom to measure an electrical signal of living hippocampus cells. Thus, the tonic GABA which inhibits neurotransmission in a brain cell was measured. The results are illustrated in FIG. 8.

[6] = test system: APP/PS1+GiD Alzheimer's model mouse (APP+DTR); test: Novel place recognition experiment; type: in vivo; settings: 3 mg/kg/day i.p.
Procedure: The cognitive function related to hippocampus was assessed by a novel place recognition experiment to confirm the cognitive impairment and recovery. The same objects were put for a certain period of time for interaction, and after one hour, the position of only one object was changed. When having a normal cognitive function, a past memory is maintained to grow interest in a new object, but when having cognitive impairment, a new place is not determined. At this time, as an animal model, an APP/PS1+GiD Alzheimer's mode mouse which is a more closely developed model mouse to the phenomenon shown in the Alzheimer's dementia patient was used. The APP/PS1+GiD Alzheimer's model mouse was produced referring to Nature Neuroscience 23, 1555-1566 (2020).
In the present experiment, APP/PS1+GiD was produced by injecting AAV-GFAP104-DTR-GFP virus into the hippocampus of the APP/PS1 mouse, and hereinafter, is referred to as “APP+DTR”. In addition, the product obtained by injecting AAV-GFAP104-GFP virus into the hippocampus of the APP/PS1 mouse was referred to as “APP+GFP”. In addition, APP+DTR to which the aminoaromatic compound of the present invention, KDS12025 (Example 21) was administered was referred to as “APP+DTR+KDS12025”. […]

[7] = test system: APP/PS1+GiD Alzheimer's model mouse (APP+DTR); test: Passive avoidance test (PAT) in APP/PS1+GiD mouse; type: in vivo
Procedure: In the present experiment, APP/PS1+GiD was produced by injecting AAV-GFAP104-DTR-GFP virus into the hippocampus of the APP/PS1 mouse, and hereinafter, is referred to as “APP+DTR”. In addition, the product obtained by injecting AAV-GFAP104-GFP virus into the hippocampus of the APP/PS1 mouse was referred to as “APP+GFP”. In addition, APP+DTR to which the aminoaromatic compound of the present invention, KDS12025 (Example 21) was administered was referred to as “APP+DTR+KDS12025”. In addition, as the WT mouse, APP/PS1 and littermate were used, and the product obtained by injecting AAV-GFAP104-GFP virus into the hippocampus of the WT mouse was referred to as “WT+GFP” and the product obtained by injecting AAV-GFAP104-DTR-GFP virus into the hippocampus of the WT mouse was referred to as “WT+DTR”.
In addition, as a result of PAT, the normal mouse (WT+GFP) remembered the dark room where it was given an electrical stimulation well and took a long time to enter the dark room.

WT mouse (C57BL/6 mouse) = test: Single toxicity assessment (lethal dose 50, LD50); type: in vivo
Procedure: The aminoaromatic compound of the present invention, KDS12008 (Example 1), KDS12017 (Example 16), or KDS12025 (Example 21) was intraperitoneally injected at a single dose of 100, 300, and 1000 mg/kg, respectively, into a WT mouse at about 8 weeks of age (C57BL/6 mouse), and it was assessed whether the animal was dead.

[8] = Blood brain barrier (BBB) permeability analysis (PAMPA); type: in vitro ADME
Procedure: Based on J Med Chem. 2001 Mar. 15; 44 (6):923-30., an artificial blood brain barrier (BBB) was produced by a parallel artificial membrane permeability assay (PAMPA), and the permeability of the drug was assessed.

Chain of hemoglobin (Hb) (P69905 2-142 limits assumed): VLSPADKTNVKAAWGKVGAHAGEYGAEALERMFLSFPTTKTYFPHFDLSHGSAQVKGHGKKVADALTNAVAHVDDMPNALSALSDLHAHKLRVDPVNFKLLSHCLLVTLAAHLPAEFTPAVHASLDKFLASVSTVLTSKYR
Chain of hemoglobin (Hb) (P68871 2-147 limits assumed): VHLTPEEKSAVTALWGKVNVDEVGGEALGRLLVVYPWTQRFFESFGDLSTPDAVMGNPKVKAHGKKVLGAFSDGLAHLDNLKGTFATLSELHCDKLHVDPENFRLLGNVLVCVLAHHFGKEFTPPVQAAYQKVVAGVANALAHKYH

CNc1ccc(NCCc2ccccc2OC)cc1 [Example 21]
EC50 (hemoglobin (Hb)): 60 nM | latency to dark room (impaired memory) (APP/PS1 mouse [1]): significantly recovered | GFAP (astrocytes) in hippocampus [2]: decreased GFAP | memory in passive avoidance test (APP/PS1 mouse [3]; 3 mg/kg/day IP for one week): maintained its memory similarly to the healthy normal mouse | memory in passive avoidance test (APP/PS1 mouse [3]; 10 mg/kg/day IP for one week): maintained its memory similarly to the healthy normal mouse | astrocytes (GFAP staining) in hippocampus ([4]; 3 mg/kg/day IP for one week): astrocytes returned to a healthy normal level | astrocytes (GFAP staining) in hippocampus ([4]; 10 mg/kg/day IP for one week): astrocytes returned to a healthy normal level | tonic GABA [5]: decreased tonic GABA | cognitive function (novel place recognition) [6]: recovered cognitive function | memory in passive avoidance test [7]: recovered memory | animals died (WT mouse (C57BL/6 mouse); C57BL/6, mouse, in vivo, ip, 300 mg/kg): about 50% | toxicity (death of animals) (WT mouse (C57BL/6 mouse); mouse, in vivo, ip, 1000 mg/kg): showed toxicity | lethal toxicity (WT mouse (C57BL/6 mouse); single dose 100 mg/kg IP, C57BL/6 mouse): lethal toxicity was not shown | Papp at 50 μM [8]: 67.4 ×10⁻⁶ cm/s
